Test results as given in US20140093459A1, “NOVEL COMPOUND” (DSM IP ASSETS B.V., priority 2009, published 2014).

Key:
[1] = Comparative: solubility of BMDBM in 1:1 (w/w) mixture of C12-15 alkyl benzoate and a polymeric or solid UV-filter (HPLC after 1 month at RT)
Excerpt: Where necessary the mixture was centrifuged in order to obtain a clear supernatant.

[2] = Solubility of BEMT in 1:1 (w/w) mixture C12-15 alkyl benzoate/PG-UVAB1 (dissolving, storage 1 month at RT); type: physicochemical
[3] = Solubility of BMDBM or BEMT in C12-15 alkyl benzoate (saturation, HPLC of supernatant); type: physicochemical
[4] = Reduction of solvent necessary to dissolve solid UV-filter; type: physicochemical

Compound | Solubility of BMDBM in C12-15 alkyl benzoate/UV-filter 1:1 ([1]; 200 mg BMDBM with 1000 mg of 1:1 (w/w) mixture, supernatant HPLC after 1 month at RT) [wt.-%] | Δ solubility related to cosmetic solvent (BMDBM) ([1]; 1:1 mixture C12-15 alkyl benzoate/UV-filter) [wt.-%] | Δ solubility (BMDBM) ([1]; 1:1 mixture with UV-filter versus C12-15 alkyl benzoate alone) [wt.-%] | re-crystallization on storage ([2]; 200 mg BEMT in 800 mg 1:1 C12-15 alkyl benzoate/PG-UVAB1, stored 1 month at RT) | solubility of BEMT in 1:1 (w/w) mixture of C12-15 alkyl benzoate/PG-UVAB1 ([2]; 200 mg BEMT in 800 mg of the mixture, 1 month at RT) | Solubility of BEMT in C12-15 alkyl benzoate/PG-UVAB1 1:1 ([2]; 1:1 mixture with PG-UVAB1) [wt.-%] | Δ solubility related to cosmetic solvent (BEMT) ([2]; 1:1 mixture with PG-UVAB1) | Δ solubility (BEMT) ([2]; 1:1 mixture with PG-UVAB1 versus C12-15 alkyl benzoate alone) | Increase of solubility of BEMT ([2]; BEMT, 1:1 mixture with PG-UVAB1 versus C12-15 alkyl benzoate alone) | Solubility in C12-15 alkyl benzoate ([3]; C12-15 alkyl benzoate alone (summary table)) [wt.-%] | solubility in the cosmetic solvent C12-15 alkyl benzoate ([3]; C12-15 alkyl benzoate alone, saturation, HPLC of supernatant) [wt.-%] | amount of 1:1 (w/w) mixture of PG-UVAB1 and diisopropyl sebacate needed to dissolve 0.5 g BMDBM ([4]; 1:1 (w/w) PG-UVAB1/diisopropyl sebacate) [g] | amount of 1:1 (w/w) mixture of PG-UVAB2 and C12-15 alkyl benzoate necessary to dissolve 0.5 g BMDBM ([4]; 1:1 (w/w) PG-UVAB2/C12-15 alkyl benzoate) [g]
CCCCC(CC)COc1ccc(-c2nc(-c3ccc(OC)cc3)nc(-c3ccc(OCC(CC)CCCC)cc3O)n2)c(O)c1 (stereo not shown) [BEMT, bis-ethylhexyloxyphenol methoxyphenyl triazine] | 3 | −4 | −11 | no re-crystallization occurred | at least 20 wt.-% | 20 | +13.5 wt.-% | +7 wt.-% | +54% | 13 | 13 | – | –
butyl methoxydibenzoylmethane [BMDBM] | – | – | – | – | – | – | – | – | – | – | – | 1.4 | 1.5
